Reference: patent US20250269043A1, “TARGETED BIFUNCTIONAL DEGRADERS” (YALE UNIVERSITY, priority 2019, published 2025)
Square brackets hold non-standard residues; d marks the D form. Peptide text beside a SMILES is read from it. * marks the point of attachment. Sta = CC(C)C[C@H](N)[C@@H](O)CC(=O)O; Isovaleryl = CC(C)CC(=O)*

Tests used:
[1] = test system: HepG2 cells; assay: Effect of protease inhibitors on degradation of endocytosed α-DNP antibody in HepG2 cells (50 kDa/25 kDa band ratio); settings: for inhibition of α-DNP antibody degradation (triplicate): 12 hours, each concentration in triplicate, ALLN 100 and 10 μM, FIG. 117; for inhibition of α-DNP antibody degradation (initial screening): leupeptin 20 and 80 μM, E64 50 and 10 μM, antipain 50 and 100 μM, aprotinin 400 or 800 nM, PMSF 100 or 500 μM, AEBSF 10 μM, ALLN 10 μM, FIG. 116
Description: The ratiometric comparison of band intensity at 50 kDa divided by the intensity of the 25 kDa was used as a measure of α-DNP antibody degradation. As endocytosed α-DNP antibody is degraded in cells, this ratio decreases. […] Each ratiometric measurement is produced using only the protein fragments present in the cell lysate.
Protease inhibitors which inhibit α-DNP antibody degradation are expected to cause an accumulation of fluorescent intensity at 50 kDa and a decrease in fluorescent intensity at 25 kDa.
Next it was studied whether the inhibition of α-DNP antibody degradation by protease inhibitors was reproducible. Each protease inhibitor concentration was tested in triplicate in HepG2 cells (FIG. 117).
Pepstatin at a concentration 15 μM was included as a negative control.

[2] = test system: α-DNP antibody; assay: In vivo depletion of α-DNP antibody from serum in mice (ELISA); settings: i.p. injection; FIG. 79A
Method: FIG. 94 illustrates that serum levels of α-DNP antibody decrease more rapidly following repeated treatment with DNP-GN3. Serum antibody levels were measured using an ELISA assay. Each experimental group contained three mice. Statistical differences in experiments involving in vivo depletion of α-DNP antibody were assessed by repeated measures two-way ANOVA with Tukey's tests for post-hoc comparison of simple effects between each of the treatment groups and PBS.
Single doses of DNP-GN3 were also found to be efficacious at mediating α-DNP antibody depletion, albeit less effectively than daily dosing (FIG. 96). […] Therefore, it was concluded that DNP-GN3 is able to mediate the depletion of a monoclonal antibody from serum, and functions across a wide range of target protein concentrations and dosing regimens.
DNP-GN3 was also found to be efficacious in depleting polyclonal α-DNP antibody from serum collected from mice immunized with DNP-keyhole limpet haemocyanin (KLH) (FIG. 97). […] Thus, the small molecule DNP-GN3 is not restricted in function to only monoclonal mouse antibodies, but is also effective at removing polyclonal α-DNP antibodies from circulation in mice.

[3] = test system: HepG2 cells; assay: MIF-GN3-mediated endocytosis of Alexa 488-labeled human MIF by HepG2 cells; settings: MIF 100 nM, MIF-GN3 200 nM; FIG. 132
Method: Human MIF protein was fluorescently labeled with Alexa 488 NHS ester, then incubated with HepG2 cells in the presence of varying levels of MIF-GN3.
The ability of MIF-GN3 to mediate MIF endocytosis over a wide range of target protein concentrations was assessed.
Next, inhibitors of various endocytic pathways were utilized to determine if MIF-GN3 mediates MIF endocytosis in a manner consistent with ASGPR (FIG. 132).

[4] = test system: HepG2 cells; assay: DNP-GN3-mediated endocytosis of fluorescently labeled α-DNP antibody by adherent HepG2 cells; type: cell-based, human; settings: sodium azide and 2-deoxyglucose as combined treatment; FIG. 89
Method: It was next explored whether DNP-GN3 mediates the endocytosis of fluorescently labeled α-DNP antibody.
To explore the cellular mechanism of antibody uptake, cells were treated with chemical inhibitors of several endocytic pathways (FIG. 89).

[5] = biological target: T1, human MIF (Homo sapiens, UniProt P14174); assay: Depletion of human MIF from cell culture supernatant (sandwich ELISA); type: cell-based; settings: for depletion of MIF from cell culture supernatant, optimized ASGPR-binding motifs / depletion of human MIF from cell culture supernatant: human MIF 100 nM; for depletion of MIF from cell culture supernatant, optimized ASGPR-binding motifs: MIF-AF2 at 40 nM, 200 nM and 1 μM; for depletion of human MIF from cell culture supernatant: FIG. 128A
T1 sequence (P14174 2-115 limits assumed): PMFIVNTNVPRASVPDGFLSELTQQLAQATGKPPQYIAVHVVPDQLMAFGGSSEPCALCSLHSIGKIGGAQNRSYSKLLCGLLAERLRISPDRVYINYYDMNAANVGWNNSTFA
Method: The ability of bifunctional MIF-binding molecules to mediate the depletion of human MIF from cell culture was investigated. In these assays, human MIF was present at a concentration of 100 nM, and a sandwich ELISA assay was utilized to measure the concentration of human MIF remaining in the cell culture supernatant. The closely related bifunctional molecules MIF-GN3, MIF-PEG2-GN3, and MIF-PEG4-GN3 were used, as well as the structurally dissimilar molecule MIF-NVS-PEG3-GN3. […] Based on the ease of its synthesis and its efficacy in this experiment, MIF-GN3 was utilized for further studies. It was next investigated whether the MIF inhibitor 3w mediates MIF depletion from cell culture supernatant. […] When cells were treated with 3w, no depletion of exogenous MIF protein was observed after 24 hours (FIG. 128B).
Bifunctional molecules containing optimized ASGPR-binding motifs are also capable of mediating MIF depletion from cell culture supernatant (FIG. 129). The MIF-binding molecule MIF-AF1, which contains only a single ASGPR-binding sugar, was not effective at mediating depletion of MIF from supernatant at any concentration tested. It is hypothesized that this is due to the compound's low predicted affinity for ASGPR (μM range). […] At a concentration of either 200 nM or 1 μM, MIF-AF2 mediated nearly 100%/o depletion of MLF from the cell culture supernatant after 48 hours. […] In contrast to these molecules, which utilize optimized synthetic ASGPR ligands, the GalNAc-based molecule MIF-GN3 mediated only 67.0% and 56.0% removal of MIF from supernatant after 48 hours at concentrations of 1 μM and 200 nM, respectively. […] At a concentration of 40 nM (4.0 pmol of molecule), MIF-AF3 mediates the removal of 83.2% of MIF present in the cell culture supernatant, or 8.32 pmol of human MIF protein. Therefore, it was concluded that under the conditions of this experiment, MIF-AF3 mediates the depletion of 2.08 molar equivalents of MIF protein.

`Cl.NCCc1ccc(S(=O)(=O)F)cc1` [AEBSF, 4-(2-aminoethyl)benzeneulfonyl fluoride hydrochloride] was tested, and the “inhibition of α-DNP antibody degradation (triplicate)” value (“inhibition … (triplicate)” below) [1] was “did not significantly inhibit”, the toxicity to cells ([1]; HepG2 cells, pepstatin 5 μM after 24 hours, AEBSF 100 μM, ALLN 100 μM by 24 hours) was “toxic” and the “inhibition of α-DNP antibody degradation (initial screening)” value (“inhibition … (initial screening)” for short) [1] was “not effective”.

`CC(C)C[C@H](NC(=O)[C@@H](O)[C@H](N)Cc1ccccc1)C(=O)O` [Bestatin] was tested, and the “inhibition … (triplicate)” value [1] was “did not significantly inhibit” and the “inhibition … (initial screening)” value [1] was “not effective”.

In the case of `CC(C)C[C@H](NC(=O)[C@H]1O[C@@H]1C(=O)O)C(=O)NCCCCN=C(N)N` [Compound E64, E64], the “inhibition … (triplicate)” value [1] is reported as “shown to inhibit” and the “inhibition … (initial screening)” value [1] is reported as “effective”.

`O=C(CCOCC(COCCC(=O)NCCOCCOCCO)(COCCC(=O)NCCOCCOCCO)NC(=O)CNC(=O)COCCOCCOCCNc1ccc([N+](=O)[O-])cc1[N+](=O)[O-])NCCOCCOCCO` [DNP-(OH)3] was tested, and the “degradation of injected anti-DNP IgG antibodies in mouse serum” value [2] was “did not show such effect”.

For `CCN(c1nc(N)c(C(=O)N=C(N)N)nc1Cl)C(C)C` [EIPA, 5-(N-Ethyl-N-isopropyl)amiloride], the “effect of endocytic pathway inhibitors on MIF-GN3-mediated MIF endocytosis” value [3] was “significantly inhibited uptake” and the “effect of endocytic pathway inhibitors on intracellular fluorescence (DNP-GN3-mediated uptake)” value [4] was “did not significantly decrease”.

For `O=C(CCCOc1ccc2nc(-c3cn(-c4ccc(O)c(F)c4)nn3)ccc2c1)NCCOCCC(=O)NCCOCCOCCOCCOC[C@]12CO[C@H](O1)[C@H](NC(=O)C(F)(F)F)[C@@H](O)[C@H]2O` [MIF-AF1], the “depletion of MIF from cell culture supernatant, optimized ASGPR-binding motifs” value ([5]; FIG. 129) was “not effective”.

For `O=C(CCOCC(COCCC(=O)NCCOCCOCCOCCOC[C@]12CO[C@H](O1)[C@H](NC(=O)C(F)(F)F)[C@@H](O)[C@H]2O)NC(=O)CCCOc1ccc2nc(-c3cn(-c4ccc(O)c(F)c4)nn3)ccc2c1)NCCOCCOCCOCCOC[C@]12CO[C@H](O1)[C@H](NC(=O)C(F)(F)F)[C@@H](O)[C@H]2O` [MIF-AF2], the “depletion of MIF from the cell culture supernatant” value ([5]; 200 nM or 1 μM, after 48 hours, FIG. 129) was about 100% and the “depletion of MIF from cell culture supernatant, optimized ASGPR-binding motifs” value ([5]; FIG. 129) was “effective”.

With `O=C(CCOCC(COCCC(=O)NCCOCCOCCOCCOC[C@]12CO[C@H](O1)[C@H](NC(=O)C(F)(F)F)[C@@H](O)[C@H]2O)(COCCC(=O)NCCOCCOCCOCCOC[C@]12CO[C@H](O1)[C@H](NC(=O)C(F)(F)F)[C@@H](O)[C@H]2O)NC(=O)CCCOc1ccc2nc(-c3cn(-c4ccc(O)c(F)c4)nn3)ccc2c1)NCCOCCOCCOCCOC[C@]12CO[C@H](O1)[C@H](NC(=O)C(F)(F)F)[C@@H](O)[C@H]2O` [MIF-AF3] the “amount of human MIF protein removed” value ([5]; 40 nM (4.0 pmol of molecule)) was 8.32 pmol.

In the case of `CC(=O)NC1C(OCCOCCOCCNC(=O)CCOCC(COCCC(=O)NCCOCCOCCOC2OC(CO)C(O)C(O)C2NC(C)=O)(COCCC(=O)NCCOCCOCCOC2OC(CO)C(O)C(O)C2NC(C)=O)NC(=O)CNC(=O)COCCOCCOCCn2cc(COCCOCCOc3ccc(N4Cc5ccc(O)cc5OC4=O)cc3)nn2)OC(CO)C(O)C1O` (stereo not shown) [MIF-NVS-PEG3-GN3], the “depletion of human MIF from cell culture supernatant” value (“depletion of human MIF” for short) ([5]; 24 hours) is reported as “effective”.

With `CC(=O)NC1C(OCCOCCOCCNC(=O)CCOCC(COCCC(=O)NCCOCCOCCOC2OC(CO)C(O)C(O)C2NC(C)=O)(COCCC(=O)NCCOCCOCCOC2OC(CO)C(O)C(O)C2NC(C)=O)NC(=O)CNC(=O)COCCOCCNC(=O)CCCOc2ccc3nc(-c4cn(-c5ccc(O)c(F)c5)nn4)ccc3c2)OC(CO)C(O)C1O` (stereo not shown) [MIF-PEG2-GN3] the “depletion of exogenous MIF protein from cell culture supernatant” value ([5]; 24 hours, FIG. 128B) was “mediated MIF depletion across a range of concentrations” and the “depletion of human MIF” value ([5]; 24 hours) was “effective”.

For `CC(=O)NC1C(OCCOCCOCCNC(=O)CCOCC(COCCC(=O)NCCOCCOCCOC2OC(CO)C(O)C(O)C2NC(C)=O)(COCCC(=O)NCCOCCOCCOC2OC(CO)C(O)C(O)C2NC(C)=O)NC(=O)CNC(=O)COCCOCCOCCOCCNC(=O)CCCOc2ccc3nc(-c4cn(-c5ccc(O)c(F)c5)nn4)ccc3c2)OC(CO)C(O)C1O` (stereo not shown) [MIF-PEG4-GN3], the “depletion of human MIF” value ([5]; 24 hours) was “effective”.

With `O=S(=O)(F)Cc1ccccc1` [PMSF, Phenylmethylsulfonyl fluoride] the “inhibition … (triplicate)” value [1] was “did not significantly inhibit” and the “inhibition … (initial screening)” value [1] was “not effective”.

In the case of `CC(C)CC(=O)N[C@H](C(=O)N[C@H](C(=O)N[C@@H](CC(C)C)[C@@H](O)CC(=O)N[C@@H](C)C(=O)N[C@@H](CC(C)C)[C@@H](O)CC(=O)O)C(C)C)C(C)C` [Pepstatin] (Isovaleryl-VV[Sta]A[Sta]-OH), the “inhibition … (triplicate)” value [1] is reported as “did not significantly inhibit” and the “inhibition … (initial screening)” value [1] is reported as “not effective”.

For `Cl.N` [ammonium chloride, NH4Cl], the “effect of endocytic pathway inhibitors on MIF-GN3-mediated MIF endocytosis” value [3] was “near background levels”.

`CO/C1=C\C(C)=C\[C@@H](C)[C@@H](O)[C@@H](C)C/C(C)=C/C=C/[C@H](OC)[C@@H]([C@@H](C)[C@@H](O)[C@H](C)[C@@]2(O)C[C@@H](O)[C@H](C)[C@@H](C(C)C)O2)OC1=O` [bafilomycin, Bafilomycin] was tested, and the “effect of endocytic pathway inhibitors on MIF-GN3-mediated MIF endocytosis” value [3] was “near background levels” and the “effect of endocytic pathway inhibitors on intracellular fluorescence (DNP-GN3-mediated uptake)” value [4] was “significantly decreased”.

For `CCN(CC)CCCC(C)Nc1ccnc2cc(Cl)ccc12` (stereo not shown) [chloroquine, Chloroquine], the “effect of endocytic pathway inhibitors on MIF-GN3-mediated MIF endocytosis” value [3] was “near background levels” and the “effect of endocytic pathway inhibitors on intracellular fluorescence (DNP-GN3-mediated uptake)” value [4] was “significantly decreased”.

`CC(=O)N[C@@H](CC(C)C)C(=O)N[C@@H](CC(C)C)C(=O)N[C@H](C=O)CCCNC(=N)N` [leupeptin, Leupeptin] was tested, and the “inhibition … (triplicate)” value [1] was “shown to inhibit” and the “inhibition … (initial screening)” value [1] was “effective”.

Aprotinin was tested, and the “inhibition … (triplicate)” value [1] was “did not significantly inhibit” and the “inhibition … (initial screening)” value [1] was “not effective”.
